The assay concerns the target T1, GLP-1R (Homo sapiens, UniProt P43220).
T1 construct: host or cells: CHO cells
As to the kind of experiment: GLP-1R activation cAMP assay (Assay 1 or Assay 2). Type of assay: cell-based. The settings on record: cAMP increase in CHO cells stably expressing GLP-1R; compounds run on one of the two cAMP assays. In a few lines: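 CHO cells stably expressing human GLP-1R were incubated 1 h in HBSS/20 mM HEPES/0.1% BSA, then exposed to 10-point agonist dilutions for 30 min at 37 °C. cAMP increase was measured with an HTRF Gs dynamic kit; EC50 from sigmoidal fit of response versus log concentration.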
(Changes in cAMP serve as a functional read-out for many G protein-coupled receptors.)

The values that follow come from patent US20250312352A1, “GLP-1R MODULATING COMPOUNDS” (Gilead Sciences, Inc., priority 2021, published 2025).

T1 sequence (P43220 24-463): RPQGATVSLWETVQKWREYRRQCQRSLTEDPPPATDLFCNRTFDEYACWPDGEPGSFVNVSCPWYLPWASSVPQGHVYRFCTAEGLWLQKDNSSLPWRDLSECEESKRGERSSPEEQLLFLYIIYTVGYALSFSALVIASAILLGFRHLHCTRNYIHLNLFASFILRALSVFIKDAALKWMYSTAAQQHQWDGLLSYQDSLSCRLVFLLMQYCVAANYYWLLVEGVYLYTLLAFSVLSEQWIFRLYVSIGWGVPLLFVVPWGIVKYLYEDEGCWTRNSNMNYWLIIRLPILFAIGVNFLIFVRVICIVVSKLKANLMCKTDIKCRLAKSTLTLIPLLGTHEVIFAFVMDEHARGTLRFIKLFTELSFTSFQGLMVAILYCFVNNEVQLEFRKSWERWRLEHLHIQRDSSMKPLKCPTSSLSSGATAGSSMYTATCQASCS

As a reminder, the EC50 is the concentration that produces a half-maximal response. High values mean a less potent agent, low ones a more potent agent. As for `O=C(O)c1ccc2nc(Cc3cc(F)c(-c4cccc(OCc5cnc(C(=O)NC6CCCC6)cc5F)n4)cc3F)n(C[C@@H]3CCO3)c2c1` [Example 244, (S)-2-(4-(6-((6-(cyclopentylcarbamoyl)-4-fluoropyridin-3-yl)methoxy)pyridin-2-yl)-2,5-difluorobenzyl)-1-(oxetan-2-ylmethyl)-1H-benzo[d]imidazole-6-carboxylic acid], the midpoint of the response, the EC50, lay at 2.28 nM. That is a single-digit nanomolar value. The molecule `O=C(O)c1ccc2nc(Cc3cc(F)c(-c4cccc(OCc5cnc(C(=O)NC6CC6)cc5F)n4)cc3F)n(C[C@@H]3CCO3)c2c1` [Example 245, (S)-2-(4-(6-((6-(cyclopropylcarbamoyl)-4-fluoropyridin-3-yl)methoxy)pyridin-2-yl)-2,5-difluorobenzyl)-1-(oxetan-2-ylmethyl)-1H-benzo[d]imidazole-6-carboxylic acid] had a half-maximal effective concentration (EC50) of 0.1 nM. This EC50 lies about 23-fold lower than the previous one. The figure for `O=C(O)c1ccc2nc(Cc3cc(F)c(-c4cccc(OCc5cnc(C(=O)NC6CCC6)cc5F)n4)cc3F)n(C[C@@H]3CCO3)c2c1` [Example 246, (S)-2-(4-(6-((6-(cyclobutylcarbamoyl)-4-fluoropyridin-3-yl)methoxy)pyridin-2-yl)-2,5-difluorobenzyl)-1-(oxetan-2-ylmethyl)-1H-benzo[d]imidazole-6-carboxylic acid] is 0.57 nM; for `O=C(O)c1ccc2nc(Cc3cc(F)c(-c4cccc(OCc5cnc(C(=O)NC6COC6)cc5F)n4)cc3F)n(C[C@@H]3CCO3)c2c1` [Example 247, (S)-2-(2,5-difluoro-4-(6-((4-fluoro-6-(oxetan-3-ylcarbamoyl)pyridin-3-yl)methoxy)pyridin-2-yl)benzyl)-1-(oxetan-2-ylmethyl)-1H-benzo[d]imidazole-6-carboxylic acid] it is 0.25 nM. As for `NC(=O)c1ccc(COc2cccc(-c3cc(F)c(Cc4nc5ccc(C(=O)O)cc5n4C[C@@H]4CCO4)cc3F)n2)nc1` [Example 248, 2-[[4-[6-[(5-carbamoyl-2-pyridyl)methoxy]-2-pyridyl]-2,5-difluoro-phenyl]methyl]-3-[[(2S)-oxetan-2-yl]methyl]benzimidazole-5-carboxylic acid], the figure is 5.61 nM. `COCCn1c(Cc2cc(F)c(-c3cccc(OCc4ccc(C(=O)NC5CC5)cc4)n3)cc2F)nc2ccc(C(=O)O)cc21` [Example 249, 2-[[4-[6-[[4-(cyclopropylcarbamoyl)phenyl]methoxy]-2-pyridyl]-2,5-difluoro-phenyl]methyl]-3-(2-methoxyethyl)benzimidazole-5-carboxylic acid] gave a concentration giving a half-maximal response (EC50) of 36.1 nM. The figure for `COCCn1c(Cc2cc(F)c(-c3cccc(OCc4ccc(-n5cnc(C6CC6)n5)nc4)n3)cc2F)nc2ccc(C(=O)O)cc21` [Example 250, 2-(4-(6-((6-(3-cyclopropyl-1H-1,2,4-triazol-1-yl)pyridin-3-yl)methoxy)pyridin-2-yl)-2,5-difluorobenzyl)-1-(2-methoxyethyl)-1H-benzo[d]imidazole-6-carboxylic acid] is 22.6 nM; for `COCCn1c(Cc2cc(F)c(-c3cccc(OCc4ccc(C#CC5CN(C(C)=O)C5)cc4F)n3)cc2F)nc2ccc(C(=O)O)cc21` [Example 251, 2-[[4-[6-[[4-[2-(1-acetylazetidin-3-yl)ethynyl]-2-fluoro-phenyl]methoxy]-2-pyridyl]-2,5-difluoro-phenyl]methyl]-3-(2-methoxyethyl)benzimidazole-5-carboxylic acid] it is 0.89 nM.

In turn, `CC1(C)COC[C@H]1n1c(Cc2cc(F)c(-c3ccc(F)c(OCc4ncc(C(F)(F)F)s4)n3)cc2F)nc2c(F)cc(C(=O)O)cc21` [Example 252, 2-[[2,5-difluoro-4-[5-fluoro-6-[[5-(trifluoromethyl)thiazol-2-yl]methoxy]-2-pyridyl]phenyl]methyl]-3-[(3S)-4,4-dimethyltetrahydrofuran-3-yl]-7-fluoro-benzimidazole-5-carboxylic acid] returned an EC50 of 0.075 nM. Take `CC1(C)COC[C@H]1n1c(Cc2cc(F)c(-c3cccc(OCc4ncc(Cl)s4)n3)cc2F)nc2ccc(C(=O)O)cc21` [Example 254, (S)-2-(4-(6-((5-chlorothiazol-2-yl)methoxy)pyridin-2-yl)-2,5-difluorobenzyl)-1-(4,4-dimethyltetrahydrofuran-3-yl)-1H-benzo[d]imidazole-6-carboxylic acid]: the midpoint of the response, the EC50, lay at 0.374 nM. The figure for `CC1(C)COC[C@H]1n1c(Cc2cc(F)c(-c3ccc(F)c(OCc4ncc(Cl)s4)n3)cc2F)nc2ccc(C(=O)O)cc21` [Example 255, (S)-2-(4-(6-((5-chlorothiazol-2-yl)methoxy)-5-fluoropyridin-2-yl)-2,5-difluorobenzyl)-1-(4,4-dimethyltetrahydrofuran-3-yl)-1H-benzo[d]imidazole-6-carboxylic acid] is 0.366 nM. The figure for `CCOc1nnc(COc2nc(-c3cc(F)c(Cc4nc5ccc(C(=O)O)cc5n4CC4(CF)CC4)cc3F)ccc2F)s1` [Example 256, 2-(4-(6-((5-ethoxy-1,3,4-thiadiazol-2-yl)methoxy)-5-fluoropyridin-2-yl)-2,5-difluorobenzyl)-1-((1-(fluoromethyl)cyclopropyl)methyl)-1H-benzo[d]imidazole-6-carboxylic acid] is 0.443 nM.

Take `Cc1cc(Cc2nc3ccc(C(=O)O)cc3n2[C@@H]2COCC2(C)C)c(F)cc1-c1cccc(OCc2ncc(Cl)s2)n1` [Example 257, (S)-2-(4-(6-((5-chlorothiazol-2-yl)methoxy)pyridin-2-yl)-2-fluoro-5-methylbenzyl)-1-(4,4-dimethyltetrahydrofuran-3-yl)-1H-benzo[d]imidazole-6-carboxylic acid]: the response was half-maximal at 0.583 nM (EC50). This EC50 and that of the molecule before are within 1.5-fold of each other. For the molecule `COc1nnc(COc2nc(-c3cc(F)c(Cc4nc5ccc(C(=O)O)cc5n4[C@@H]4COCC4(C)C)cc3C)ccc2F)s1` [Example 258, (S)-1-(4,4-dimethyltetrahydrofuran-3-yl)-2-(2-fluoro-4-(5-fluoro-6-((5-methoxy-1,3,4-thiadiazol-2-yl)methoxy)pyridin-2-yl)-5-methylbenzyl)-1H-benzo[d]imidazole-6-carboxylic acid], the EC50 worked out at 0.483 nM. The EC50 values of the last two molecules are within 1.5-fold of each other. `CCOc1nnc(COc2cccc(-c3cc(F)c(Cc4nc5ccc(C(=O)O)cc5n4[C@@H]4COCC4(C)C)cc3C)c2)s1` [Example 259, (S)-1-(4,4-dimethyltetrahydrofuran-3-yl)-2-((3′-((5-ethoxy-1,3,4-thiadiazol-2-yl)methoxy)-5-fluoro-2-methyl-[1,1′-biphenyl]-4-yl)methyl)-1H-benzo[d]imidazole-6-carboxylic acid] had an EC50 of 0.577 nM.

As for `CCOc1nnc(COc2cc(-c3cc(F)c(Cc4nc5ccc(C(=O)O)cc5n4[C@@H]4COCC4(C)C)cc3C)ccc2F)s1` [Example 260, (S)-1-(4,4-dimethyltetrahydrofuran-3-yl)-2-((3′-((5-ethoxy-1,3,4-thiadiazol-2-yl)methoxy)-4′,5-difluoro-2-methyl-[1,1′-biphenyl]-4-yl)methyl)-1H-benzo[d]imidazole-6-carboxylic acid], a half-maximal response (EC50) required 0.254 nM. This EC50 is about 2.3-fold lower than that of the molecule before. For the molecule `COc1nnc(COc2cccc(-c3cc(F)c(Cc4nc5ccc(C(=O)O)cc5n4[C@@H]4COCC4(C)C)cc3C)n2)s1` [Example 261, (S)-1-(4,4-dimethyltetrahydrofuran-3-yl)-2-(2-fluoro-4-(6-((5-methoxy-1,3,4-thiadiazol-2-yl)methoxy)pyridin-2-yl)-5-methylbenzyl)-1H-benzo[d]imidazole-6-carboxylic acid], the EC50 amounted to 0.044 nM. `CCOc1nnc(COc2nc(-c3cc(F)c(Cc4nc5ccc(C(=O)O)cc5n4[C@@H]4COCC4(C)C)cc3C)ccc2F)s1` [Example 262, (S)-1-(4,4-dimethyltetrahydrofuran-3-yl)-2-(4-(6-((5-ethoxy-1,3,4-thiadiazol-2-yl)methoxy)-5-fluoropyridin-2-yl)-2-fluoro-5-methylbenzyl)-1H-benzo[d]imidazole-6-carboxylic acid] had an EC50 of 0.134 nM. The figure for `CCOc1nnc(COc2cccc(-c3cc(F)c(Cc4nc5ccc(C(=O)O)cc5n4[C@@H]4COCC4(C)C)c(F)c3F)n2)s1` [Example 263, (S)-1-(4,4-dimethyltetrahydrofuran-3-yl)-2-(4-(6-((5-ethoxy-1,3,4-thiadiazol-2-yl)methoxy)pyridin-2-yl)-2,3,6-trifluorobenzyl)-1H-benzo[d]imidazole-6-carboxylic acid] is 0.131 nM. `CCOc1nnc(COc2nc(-c3cc(F)c(Cc4nc5ccc(C(=O)O)cc5n4[C@@H]4COCC4(C)C)c(F)c3F)ccc2F)s1` [Example 265, (S)-1-(4,4-dimethyltetrahydrofuran-3-yl)-2-(4-(6-((5-ethoxy-1,3,4-thiadiazol-2-yl)methoxy)-5-fluoropyridin-2-yl)-2,3,6-trifluorobenzyl)-1H-benzo[d]imidazole-6-carboxylic acid] yielded an EC50 of 0.152 nM. Take `CCOc1nnc(COc2cccc(-c3cc(F)c(Cc4nc5ccc(C(=O)O)cc5n4CC4(CF)CC4)cc3F)n2)s1` [Example 266, 2-(4-(6-((5-ethoxy-1,3,4-thiadiazol-2-yl)methoxy)pyridin-2-yl)-2,5-difluorobenzyl)-1-((1-(fluoromethyl)cyclopropyl)methyl)-1H-benzo[d]imidazole-6-carboxylic acid]: the EC50 was found to be 0.367 nM.

On to `CC1(C)COC[C@H]1n1c(Cc2cc(F)c(-c3ccnc(OCc4sc(C#N)cc4F)n3)cc2F)nc2ccc(C(=O)O)cc21` [Example 267, 2-[[4-[2-[(5-cyano-3-fluoro-2-thienyl)methoxy]pyrimidin-4-yl]-2,5-difluoro-phenyl]methyl]-3-[(3S)-4,4-dimethyltetrahydrofuran-3-yl]benzimidazole-5-carboxylic acid], for which the EC50 was found to be 0.401 nM. The EC50 values of the last two molecules are within 1.5-fold of each other. As to `COc1nnc(COc2nc(-c3cc(F)c(Cc4nc5ccc(C(=O)O)cc5n4CC4(CF)CC4)cc3F)ccc2F)s1` [Example 268, 2-(2,5-difluoro-4-(5-fluoro-6-((5-methoxy-1,3,4-thiadiazol-2-yl)methoxy)pyridin-2-yl)benzyl)-1-((1-(fluoromethyl)cyclopropyl)methyl)-1H-benzo[d]imidazole-6-carboxylic acid], the EC50 was found to be 0.762 nM.
